The text below walks through data of PubChem BioAssay (NCI).

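Dose response: 5 concentrations. Exposure: 48 h. Format: 96-well plates. Endpoint: linear interpolation; highest concentration if not reached. The concentration for 50% growth inhibition is given as GI50. TGI denotes the concentration required for complete inhibition of growth.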

Some test systems named below: SK-MEL-28 melanoma; RPMI-8226 leukemia; COLO 205 colon; SNB-75 CNS; SW-620 colon; OVCAR-3 ovarian; CCRF-CEM leukemia; UO-31 renal; HCT-15 colon; KM12 colon.
Holding throughout (experiment): NCI anticancer screen, dose series, 48 h

Turning to `COc1ccc2nc3cc(Cl)ccc3c(NCCCN(C)CCCNc3ccc4ncn5c6ccccc6c(=O)c3c45)c2c1`, the TGI is 7.38 µM in the experiment on SK-MEL-28 melanoma; above 25 µM in the experiment on RPMI-8226 leukemia; 3.66 µM with COLO 205 colon; 7.55 µM with SNB-75 CNS; above 25 µM in the experiment on SW-620 colon; 6.79 µM in the experiment on OVCAR-3 ovarian. The TGI was above 25 µM in the experiment on CCRF-CEM leukemia, 7.28 µM in the experiment on UO-31 renal, above 9.4 µM in the experiment on HCT-15 colon and 4.99 µM in the experiment with KM12 colon.
With `CC(C)OP(=O)(OC(C)C)C(=Nc1ccc(N=C(NNc2ccc([N+](=O)[O-])cc2)P(=O)(OC(C)C)OC(C)C)cc1)NNc1ccc([N+](=O)[O-])cc1`, the TGI in the experiment with SK-MEL-28 melanoma, in the experiment with RPMI-8226 leukemia, in the experiment on COLO 205 colon, with SNB-75 CNS, in the experiment on OVCAR-3 ovarian and with CCRF-CEM leukemia was above 100 µM in each case. Moreover, the TGI with UO-31 renal, with HCT-15 colon and in the experiment with KM12 colon was above 100 µM each time.
For the compound `O[C@@H]1CCCCN1Cc1cc2cc3c(cc2c2cc(OCc4ccccc4)ccc12)OCO3`, the GI50 with SK-MEL-28 melanoma was 1.55 µM; in the experiment on RPMI-8226 leukemia, 1.41 µM; in the experiment with COLO 205 colon, 1.28 µM; with SNB-75 CNS, 1.66 µM; in the experiment on SW-620 colon it was 1.17 µM; with OVCAR-3 ovarian it was 1.5 µM. Besides, the GI50 was 0.176 µM with CCRF-CEM leukemia, 1.53 µM with UO-31 renal, 1.81 µM in the experiment on HCT-15 colon and 1.59 µM in the experiment with KM12 colon. Besides, the TGI in the experiment with SK-MEL-28 melanoma came out at 2.94 µM; in the experiment on RPMI-8226 leukemia it was 3.38 µM; in the experiment with COLO 205 colon, 2.66 µM; in the experiment with SNB-75 CNS it was 3.08 µM; with SW-620 colon, 2.7 µM; in the experiment on OVCAR-3 ovarian, 2.95 µM. Moreover, the TGI with CCRF-CEM leukemia was found to be 4.61 µM; with UO-31 renal, 2.89 µM; in the experiment with HCT-15 colon, 4.37 µM; with KM12 colon it was 3.16 µM.
Turning to `CS(=O)(=O)Sc1ccc(Cl)cc1`, the TGI turned out to be 23.9 µM with SK-MEL-28 melanoma; 41.9 µM in the experiment with RPMI-8226 leukemia; 12.7 µM with COLO 205 colon; 12.6 µM in the experiment with SNB-75 CNS; 25.3 µM with SW-620 colon; 19.3 µM in the experiment on OVCAR-3 ovarian. Further, the TGI in the experiment with CCRF-CEM leukemia is 8.89 µM; in the experiment on UO-31 renal it was 13.3 µM; with HCT-15 colon, 22.2 µM; in the experiment with KM12 colon, 19.7 µM.
For the compound `CCOC(=O)/C(C#N)=c1/s/c(=C(\O)N/N=C/c2ccc(OC)cc2)c(=N)n1-c1ccccc1`, the TGI in the experiment with SK-MEL-28 melanoma is above 100 µM; with RPMI-8226 leukemia, above 100 µM; in the experiment with COLO 205 colon, above 100 µM; in the experiment on SNB-75 CNS it was 27.2 µM; in the experiment on SW-620 colon, above 100 µM; in the experiment on OVCAR-3 ovarian it was above 100 µM. In addition, the TGI in the experiment on CCRF-CEM leukemia, in the experiment with UO-31 renal and in the experiment on KM12 colon was above 100 µM each time.
As for `NC(C(=O)O)C(O)c1cnc[nH]1` (stereo not given), the TGI in the experiment with SK-MEL-28 melanoma, in the experiment on RPMI-8226 leukemia, in the experiment on COLO 205 colon, in the experiment on SNB-75 CNS, in the experiment on SW-620 colon and in the experiment with OVCAR-3 ovarian was above 100 µM in each case. In addition, the TGI in the experiment on CCRF-CEM leukemia, in the experiment on HCT-15 colon and with KM12 colon was above 100 µM throughout.
Consider `C[N+](C)(C)CC(=O)N/N=C\c1c(O)ccc2ccccc12`, for which the TGI with SK-MEL-28 melanoma was above 100 µM; in the experiment with RPMI-8226 leukemia it was above 100 µM; with COLO 205 colon, above 100 µM; in the experiment on SNB-75 CNS, 71.1 µM; in the experiment on SW-620 colon it was above 100 µM; with OVCAR-3 ovarian, above 100 µM. Also, the TGI was 76.1 µM in the experiment with CCRF-CEM leukemia, above 100 µM in the experiment with UO-31 renal, above 100 µM with HCT-15 colon and above 100 µM with KM12 colon.
Take `O=c1cc(O)c1=O`: the TGI with SK-MEL-28 melanoma, in the experiment with RPMI-8226 leukemia, in the experiment on COLO 205 colon, in the experiment with SNB-75 CNS, with SW-620 colon and in the experiment on OVCAR-3 ovarian was above 100 µM throughout. Further, the TGI in the experiment with CCRF-CEM leukemia, in the experiment on UO-31 renal, with HCT-15 colon and with KM12 colon was above 100 µM in each case.
Regarding `CCCCCCCCCCCCOC(=N)N1CCOCC1`, the TGI was 25.3 µM in the experiment with SK-MEL-28 melanoma; 5.15 µM in the experiment on RPMI-8226 leukemia; 3.45 µM in the experiment with COLO 205 colon; 29.9 µM with SNB-75 CNS; 16.6 µM in the experiment with SW-620 colon; 30.3 µM in the experiment with OVCAR-3 ovarian. Moreover, the TGI in the experiment on CCRF-CEM leukemia was 9.44 µM; with UO-31 renal, 26.8 µM; in the experiment on HCT-15 colon, 16.3 µM; with KM12 colon, 19.3 µM.
Consider `Nc1ccc(Oc2ccc(C3(c4ccc(Oc5ccc(N)c(O)c5)cc4)C4CC5CC(C4)CC3C5)cc2)cc1O`, for which the TGI came to 5.64 µM in the experiment with RPMI-8226 leukemia; 1.72 µM in the experiment on COLO 205 colon; 3.35 µM in the experiment with OVCAR-3 ovarian; 6.47 µM with CCRF-CEM leukemia; 3.82 µM in the experiment on UO-31 renal; 4.59 µM in the experiment on KM12 colon.
With `C/C(=C\COP(=O)(O)CP(=O)(O)O)CC/C=C(\C)CNc1ccccc1`, the TGI in the experiment on SK-MEL-28 melanoma, with RPMI-8226 leukemia, with COLO 205 colon, with SNB-75 CNS, in the experiment with SW-620 colon and with OVCAR-3 ovarian was above 100 µM each time. Besides, the TGI in the experiment with CCRF-CEM leukemia, with UO-31 renal, in the experiment with HCT-15 colon and in the experiment with KM12 colon was above 100 µM in each case.
Regarding `COC(=O)C(Cc1ccc2c(c1)OCO2)(NC(=O)c1ccccc1)P(=O)(OC)OC` (stereo not given), the TGI in the experiment with SK-MEL-28 melanoma, in the experiment with RPMI-8226 leukemia, in the experiment with COLO 205 colon, in the experiment on SNB-75 CNS, in the experiment with SW-620 colon and in the experiment with CCRF-CEM leukemia was above 100 µM in each case. Besides, the TGI in the experiment on UO-31 renal, with HCT-15 colon and with KM12 colon was above 100 µM in each case.
Regarding `Cc1nnc(NS(=O)(=O)c2ccc(N=Nc3c(O)c(C(=O)O)cc4ccccc34)cc2)s1`, the TGI in the experiment on SK-MEL-28 melanoma, with RPMI-8226 leukemia, in the experiment on COLO 205 colon, in the experiment on SNB-75 CNS, in the experiment on SW-620 colon and in the experiment with OVCAR-3 ovarian was above 100 µM in each case. Moreover, the TGI in the experiment with CCRF-CEM leukemia, with UO-31 renal, in the experiment with HCT-15 colon and with KM12 colon was above 100 µM each time.
For `COc1ccc2c(c1)SC1=Nc3sc4cc(OC)ccc4[n+]3CN12`, the TGI is 88.4 µM in the experiment with RPMI-8226 leukemia; 11.6 µM in the experiment on COLO 205 colon; above 100 µM with SW-620 colon; 21.5 µM with OVCAR-3 ovarian; above 100 µM with CCRF-CEM leukemia; above 100 µM in the experiment with UO-31 renal. In addition, the figures for the TGI in the experiment with HCT-15 colon and in the experiment with KM12 colon were above 100 µM and 71.9 µM, respectively.
